# From US11236087B2, “Highly active pyrazolo-piperidine substituted indole-2-carboxamides active against the hepatitis B virus (HBV)” (AiCuris GmbH & Co. KG, priority 2017, dated 2022)
# How the values were obtained:
# [1] = system: HBV; test: Determination of HBV DNA from the supernatants of HepAD38 cells (anti-HBV activity); format: cell-based, hepatitis B virus; conditions: Hepatitis B virus, 144 h; HBV DNA in HepAD38 supernatant, day 6, qPCR; read-out: Cell Activity (EC50)
# Outline: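 Supernatant viral DNA was measured by LightCycler qPCR, calibrated with pCH-9/3091 plasmid, 6 days after tetracycline-free HepAD38 cultures received half-log serial compound dilutions; untreated and tetracycline-treated cells served as controls; EC50 was fitted by non-linear regression.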
# [2] = target: T1, HBV core protein (UniProt P03146); test: Biochemical capsid assembly assay (fluorescence quenching); parameters: species or system hepatitis B virus; conditions: read-out: Assembly Activity (IC50); BODIPY-FL labelled core protein, 300 μM NaCl, read 6 min after start
# T1 construct: fused on or other part: BODIPY-FL maleimide label on the C-terminal Cys150
# Outline: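 Assembly-induced fluorescence quenching (477/525 nm) was measured 6 min after NaCl addition ([…]), against 2.5 M and 0 M NaCl controls. The labelled C150 core dimer (truncated at 149) at 1.0-2.0 μM in HEPES pH 7.5 was tested with eight half-log compound dilutions, top 100, 31.6 or 10 μM. EC50 was obtained by non-linear fit from triplicates run three times.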
# [3] = Cell viability assay (AlamarBlue) in HepAD38 cells; conditions: human
# T1 sequence (P03146 whole entry, looked up, the tested form may be a part): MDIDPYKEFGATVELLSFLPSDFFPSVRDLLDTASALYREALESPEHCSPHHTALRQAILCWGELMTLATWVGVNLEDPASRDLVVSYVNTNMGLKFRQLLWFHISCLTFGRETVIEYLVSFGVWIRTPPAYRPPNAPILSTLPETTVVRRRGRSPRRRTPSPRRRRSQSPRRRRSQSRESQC
Compound,EC50 [1],IC50 [2],CC50 at 6 days [3]
"CON(C)C(=O)c1n[nH]c2c1CN(C(=O)c1cc3c(F)ccc(F)c3[nH]1)CC2 [Example 125, 5-(4,7-difluoro-1H-indole-2-carbonyl)-N-methoxy-N-methyl-1H,4H,5H,6H,7H-pyrazolo[4,3-c]pyridine-3-carboxamide]",< 1 µM,< 5 µM,> 100 µM
"CON(C)C(=O)c1n[nH]c2c1CN(C(=O)c1cc3c(Cl)cc(F)cc3[nH]1)CC2 [Example 126, 5-(4-chloro-6-fluoro-1H-indole-2-carbonyl)-N-methoxy-N-methyl-1H,4H,5H,6H,7H-pyrazolo[4,3-c]pyridine-3-carboxamide]",< 1 µM,< 5 µM,> 32 µM
"CON(C)C(=O)c1n[nH]c2c1CN(C(=O)c1cc3c(F)cc(F)cc3[nH]1)CC2 [Example 127, 5-(4,6-difluoro-1H-indole-2-carbonyl)-N-methoxy-N-methyl-1H4H,5H,6H,7H-pyrazolo[4,3-c]pyridine-3-carboxamide]",< 1 µM,< 5 µM,> 100 µM
"CON(C)C(=O)c1n[nH]c2c1CN(C(=O)c1cc3c(C)cc(F)cc3[nH]1)CC2 [Example 128, 5-(6-fluoro-4-methyl-1H-indole-2-carbonyl)-N-methoxy-N-methyl-1H,4H,5H,6H,7H-pyrazolo[4,3-c]pyridine-3-carboxamide]",< 1 µM,< 5 µM,98 µM
"CON(C)C(=O)c1n[nH]c2c1CN(C(=O)c1cc3c(C(F)(F)F)cccc3[nH]1)CC2 [Example 129, N-methoxy-N-methyl-5-[4-(trifluoromethyl)-1H-indole-2-carbonyl]-1H,4H,5H,6H,7H-pyrazolo[4,3-c]pyridine-3-carboxamide]",< 1 µM,< 5 µM,> 32 µM
"CON(C)C(=O)c1n[nH]c2c1CN(C(=O)c1cc3c(C)cccc3[nH]1)CC2 [Example 131, N-methoxy-N-methyl-5-(4-methyl-1H-indole-2-carbonyl)-1H,4H,5H,6H,7H-pyrazolo[4,3-c]pyridine-3-carboxamide]",< 1 µM,< 5 µM,> 100 µM
"O=C(c1cc2ccccc2[nH]1)N1CCc2[nH]nc(C(=O)N3CCCO3)c2C1 [Example 133, 2-[3-(1,2-oxazolidine-2-carbonyl)-1H,4H,5H,6H,7H-pyrazolo[4,3-c]pyridine-5-carbonyl]-1H-indole]",< 100 µM,< 5 µM,> 100 µM
"Cc1cc(F)cc2[nH]c(C(=O)N3CCc4[nH]ncc4C3)cc12 [Example 135, 6-fluoro-4-methyl-2-{1H,4H,5H,6H,7H-pyrazolo[4,3-c]pyridine-5-carbonyl}-1H-indole]",< 1 µM,< 5 µM,> 100 µM
"Cc1cccc2[nH]c(C(=O)N3CCc4[nH]ncc4C3)cc12 [Example 136, 4-methyl-2-{1H,4H,5H,6H,7H-pyrazolo[4,3-c]pyridine-5-carbonyl}-1H-indole]",< 1 µM,< 5 µM,> 100 µM
"CON(C)C(=O)c1n[nH]c2c1CN(C(=O)c1cc3ccccc3[nH]1)CC2 [Example 138, 5-(1H-indole-2-carbonyl)-N-methoxy-N-methyl-1H,4H,5H,6H,7H-pyrazolo[4,3-c]pyridine-3-carboxamide]",< 1 µM,< 5 µM,> 100 µM
"CCOC(=O)c1n[nH]c2c1CN(C(=O)c1cc3ccccc3[nH]1)CC2 [Example 140, ethyl 5-(1H-indole-2-carbonyl)-1H,4H,5H,6H,7H-pyrazolo[4,3-c]pyridine-3-carboxylate]",< 100 µM,< 5 µM,> 100 µM
"O=C(c1cc2c(Cl)cc(F)cc2[nH]1)N1CCc2[nH]ncc2C1 [Example 142, 4-chloro-6-fluoro-2-{1H,4H,5H,6H,7H-pyrazolo[4,3-c]pyridine-5-carbonyl}-1H-indole]",< 1 µM,< 5 µM,> 100 µM
"C[C@H]1CCCCN1C(=O)c1n[nH]c2c1CN(C(=O)c1cc3ccccc3[nH]1)CC2 [Example 147, 2-{3-[(2S)-2-methylpiperidine-1-carbonyl]-1H,4H,5H,6H,7H-pyrazolo[4,3-c]pyridine-5-carbonyl}-1H-indole]",< 1 µM,5 to 10 µM,> 10 µM
"C[C@@H]1CCCCN1C(=O)c1n[nH]c2c1CN(C(=O)c1cc3ccccc3[nH]1)CC2 [Example 148, 2-{3-[(2R)-2-methylpiperidine-1-carbonyl]-1H,4H,5H,6H,7H-pyrazolo[4,3-c]pyridine-5-carbonyl}-1H-indole]",1 to 25 µM,5 to 10 µM,> 10 µM
"CC(=O)NCCN(C)C(=O)c1n[nH]c2c1CN(C(=O)c1cc3ccccc3[nH]1)CC2 [Example 149, N-(2-{1-[5-(1H-indole-2-carbonyl)-1H,4H,5H,6H,7H-pyrazolo[4,3-c]pyridin-3-yl]-N-methylformamido}ethyl)acetamide]",1 to 25 µM,< 100 µM,> 10 µM
"CN(CCS(C)(=O)=O)C(=O)c1n[nH]c2c1CN(C(=O)c1cc3ccccc3[nH]1)CC2 [Example 150, 5-(1H-indole-2-carbonyl)-N-(2-methanesulfonylethyl)-N-methyl-1H,4H,5H,6H,7H-pyrazolo[4,3-c]pyridine-3-carboxamide]",1 to 25 µM,< 100 µM,> 10 µM
"O=C(c1cc2ccccc2[nH]1)N1CCc2[nH]nc(C(=O)N3C[C@H]4CCO[C@H]4C3)c2C1 [Example 152, 2-{3-[(3aR,6aR)-hexahydro-2H-furo[2,3-c]pyrrole-5-carbonyl]-1H,4H,5H,6H,7H-pyrazolo[4,3-c]pyridine-5-carbonyl}-1H-indole]",1 to 25 µM,< 100 µM,> 10 µM
"O=C(c1cc2ccccc2[nH]1)N1CCc2[nH]nc(C(=O)N3CC4COCC4C3)c2C1 (stereo not drawn) [Example 153, 2-(3-{hexahydro-1H-furo[3,4-c]pyrrole-5-carbonyl}-1H,4H,5H,6H,7H-pyrazolo[4,3-c]pyridine-5-carbonyl)-1H-indole]",1 to 25 µM,< 100 µM,> 10 µM
"COCC1(N(C)C(=O)c2n[nH]c3c2CN(C(=O)c2cc4ccccc4[nH]2)CC3)CCC1 [Example 154, 5-(1H-indole-2-carbonyl)-N-[1-(methoxymethyl)cyclobutyl]-N-methyl-1H,4H,5H,6H,7H-pyrazolo[4,3-c]pyridine-3-carboxamide]",< 1 µM,5 to 10 µM,> 10 µM
"COCC1(N(C)C(=O)c2n[nH]c3c2CN(C(=O)c2cc4ccccc4[nH]2)CC3)CC1 [Example 155, 5-(1H-indole-2-carbonyl)-N-[1-(methoxymethyl)cyclopropyl]-N-methyl-1H,4H,5H,6H,7H-pyrazolo[4,3-c]pyridine-3-carboxamide]",< 1 µM,< 5 µM,> 10 µM
"O=C(c1cc2ccccc2[nH]1)N1CCc2[nH]nc(C(=O)N3CC[C@@H](O)C3)c2C1 [Example 156, (3R)-1-[5-(1H-indole-2-carbonyl)-1H,4H,5H,6H,7H-pyrazolo[4,3-c]pyridine-3-carbonyl]pyrrolidin-3-ol]",1 to 25 µM,< 100 µM,> 10 µM
"O=C(c1cc2ccccc2[nH]1)N1CCc2[nH]nc(C(=O)N3CC[C@H](O)C3)c2C1 [Example 157, (3S)-1-[5-(1H-indole-2-carbonyl)-1H,4H,5H,6H,7H-pyrazolo[4,3-c]pyridine-3-carbonyl]pyrrolidin-3-ol]",1 to 25 µM,< 100 µM,> 10 µM
"O=C(c1cc2ccccc2[nH]1)N1CCc2[nH]nc(C(=O)N3CCS(=O)(=O)CC3)c2C1 [Example 158, 4-[5-(1H-indole-2-carbonyl)-1H,4H,5H,6H,7H-pyrazolo[4,3-c]pyridine-3-carbonyl]-1lambda6-thiomorpholine-1,1-dione]",1 to 25 µM,< 100 µM,> 10 µM
"O=C(c1cc2ccccc2[nH]1)N1CCc2[nH]nc(C(=O)N3CCSCC3)c2C1 [Example 159, 2-[3-(thiomorpholine-4-carbonyl)-1H,4H,5H,6H,7H-pyrazolo[4,3-c]pyridine-5-carbonyl]-1H-indole]",< 1 µM,< 5 µM,> 10 µM
"COC1CCN(C(=O)c2n[nH]c3c2CN(C(=O)c2cc4ccccc4[nH]2)CC3)CC1 [Example 160, 2-[3-(4-methoxypiperidine-1-carbonyl)-1H,4H,5H,6H,7H-pyrazolo[4,3-c]pyridine-5-carbonyl]-1H-indole]",< 1 µM,< 100 µM,> 10 µM
"O=C(c1cc2ccccc2[nH]1)N1CCc2[nH]nc(C(=O)N3CCC[C@@H](O)C3)c2C1 [Example 161, (3R)-1-[5-(1H-indole-2-carbonyl)-1H,4H,5H,6H,7H-pyrazolo[4,3-c]pyridine-3-carbonyl]piperidin-3-ol]",< 1 µM,5 to 10 µM,> 10 µM
"O=C(c1cc2ccccc2[nH]1)N1CCc2[nH]nc(C(=O)N3CCC[C@H](O)C3)c2C1 [Example 162, (3S)-1-[5-(1H-indole-2-carbonyl)-1H,4H,5H,6H,7H-pyrazolo[4,3-c]pyridine-3-carbonyl]piperidin-3-ol]",1 to 25 µM,< 100 µM,> 10 µM
